# Data taken from publication PMC8238520, “Co-ordinated control of the Aurora B abscission checkpoint by PKCε complex assembly, midbody recruitment and retention” (Biochemical Journal, 2021).
# Legend:
# Assay type in all cases: cell-based
# [1] = tested on: GFP-PKCε-C183A in HEK293T cells; assay: Midbody recruitment of GFP-PKCε-C183A (C1A mutant), immunofluorescence; details: twenty cells with midbodies per condition across three experiments
# Protocol: (§1) Cells were grown on 13 mm glass coverslips and simultaneously fixed and permeabilized with PHEM-TX buffer (60 mM PIPES (pH 6.8), 25 mM HEPES (pH7.4), 10 mM EGTA (pH 8), 4 mM MgSO4, 4% paraformaldehyde and 0.1% Triton X-100) for 20 min. Cells were then incubated in blocking buffer (3% BSA in PBS) and probed using the following primary antibodies: rabbit Aurora B pS227 (in house, 1 : 100), mouse α-tubulin (in house, 1 : 1000). Primary antibodies were detected using Alexa Fluor-conjugated secondary antibodies (Life Technologies) and were all used diluted in blocking buffer: donkey anti-rabbit Alexa Fluor 647 and goat anti-mouse Alexa Fluor 555. […]
# (§2) Figure 2. […] (B) Quantitation of dividing cells with GFP-PKCε and GFP-PKCε-D532N accumulation at the midbody. […] (D) Quantitation of dividing cells with GFP-PKCε, GFP-PKCε-S346A-S368A, GFP-PKCε-D532N or GFP-PKCε-D532N-S346A-S368A accumulation at the midbody. […] (F) Quantitation of dividing cells with GFP-PKCε-D532N, GFP-PKCε-D532N-C183A, GFP-PKCε-D532N-C259A or GFP-PKCε-D532N-ΔC2 accumulation at the midbody. […] (G) Quantitation of multinucleate cells upon treatment with non-targeting siRNA (control) or PKCε siRNA, with expression of siRNA-resistant mouse GFP-PKCε, GFP-PKCε-D532N, GFP-PKCε-C183A, GFP-PKCε-C259A or GFP-PKCε-ΔC2. […] Two-hundred cells were counted per condition per experiment. […]
# [2] = tested on: GFP-PKCε-ΔC2 in HEK293T cells; assay: Midbody recruitment of GFP-PKCε-ΔC2, immunofluorescence
# Protocol: as §1, with “555. All coverslips were mounted using ProLong Gold Diamond with DAPI (Invitrogen). All the static images were acquired using an inverted laser scanning confocal microscope (Carl Zeiss LSM 780) equipped with a 40× Plan-APOCHROMAT DIC oil-immersion objective. Image analysis was carried out using the ZEN analysis software. The variation in expression precluded midbody/cytoplasmic ratio determination as a valid approach to scoring localisation.” for “555.”
# (§3) I = I0 –I 1e-t/T1 –I 2e-t/T2 (see Methods), for GFP-PKC e M486A expressing HEK293T cells pretreated with NaPP1. Cells were bleached atthe plasma membrane (PM) or midbody(MB)and fluorescence recovery was monitored. […]
# [3] = tested on: GFP-PKCε-L223A-K224A-E227A in HEK293T cells; assay: Midbody recruitment of GFP-PKCε-L223A-K224A-E227A (LKE > 3A), immunofluorescence; details: twenty cells with midbodies per condition across three experiments
# Protocol: as §1, with “555. All coverslips were mounted using ProLong Gold Diamond with DAPI (Invitrogen). All the static images were acquired using an inverted laser scanning confocal microscope (Carl Zeiss LSM 780) equipped with a 40× Plan-APOCHROMAT DIC oil-immersion objective. Image analysis was carried out using the ZEN analysis software. The variation in expression precluded midbody/cytoplasmic ratio determination as a valid approach to scoring localisation.” for “555.”
# Figure 3. […] (C) Quantitation of dividing cells with GFP-PKCε, GFP-PKCε-D532N, GFP-PKCε-D532N-L223A-K224A-E227A, GFP-PKCε-D532N-T228A or GFP-PKCε-D532N-S234A accumulation at the midbody. […]
# [4] = tested on: GFP-PKCε (WT) in HEK293T cells; assay: Midbody recruitment of GFP-PKCε (WT), immunofluorescence; details: cells undergoing cytokinesis, twenty cells with midbodies per condition across three experiments
# Protocol: as §1, §2
# [5] = tested on: GFP-PKCε-C259A in HEK293T cells; assay: Midbody recruitment of GFP-PKCε-C259A (C1B mutant), immunofluorescence; details: twenty cells with midbodies per condition across three experiments
# Protocol: as §1, §2
# [6] = tested on: GFP-PKCε M486A in HEK293T cells; assay: Fluorescence recovery after photobleaching (FRAP); details: NaPP1 (4 μM) for 10 min; 37°C
# Protocol: Live-cell fluorescence recovery after photobleaching (FRAP) experiments were performed using an inverted laser scanning confocal microscope (LSM 510, Carl Zeiss MicroImaging GmbH, Jena, Germany), with fully open pinhole, using a Plan-Apochromat oil-immersion objective (×63, NA 1.4). The microscope was encased inside an environmental polymethylmethacrylate case maintained at a constant temperature of 37°C, while the dishes containing the cells were maintained under a constant 5% CO2 flow. GFP-PKCε M486A cells were incubated with NaPP1 (4 μM) for 10 min. Each FRAP experiment comprised a sequence of 300 frames (128 × 128, pixel dwell time of 6.40 μs, pixel size 0.37 μm) including 10 pre-bleached frames. […] Recovery was monitored by capturing a further 290 scans after the photobleach event. Quantification was performed using the FRAP module included in the LSM software (Carl Zeiss) plotting the graphs to a best fit double exponential model I = I0 − I1e^−t/T^1 − I2e^−t/T^2 where I0 is the intensity before bleach, I1 and I2 are the mobile fractions and T1 and T2 the time constants. […]
# as §3
structure (smiles),measurement,setting,value
"CCCCCCCCCC(=O)OC[C@H](CO)OC(=O)CCCCCCCCC [DiC10, sn-1,2-didecanoylglycerol]",cells displaying recruitment of C1A mutant to midbody on diC10,"[1]; 10 µM diC10, 3 min",0%
same,midbody recruitment of PKCεΔC2 on diC10,"[2]; DiC10, data not shown",recruited
same,midbody recruitment of LKE > 3A mutant on diC10,"[3]; 10 µM diC10, 3 min",recruited to the midbody
same,midbody recruitment of WT PKCε on diC10,"[4]; 10 µM diC10, 3 min",recruited to the midbody region
same,cells displaying recruitment of C1B mutant to midbody on diC10,"[5]; 10 µM diC10, 3 min",0%
CC(C)(C)n1nc(-c2cccc3ccccc23)c2c(N)ncnc21 [NaPP1],fast component of FRAP recovery at the midbody compared with the plasma membrane recruited protein,[6],considerably slower
"CCCCCCCCCCCCCC(=O)O[C@@H]1[C@@H](C)[C@@]2(O)[C@@H](C=C(CO)C[C@]3(O)C(=O)C(C)=C[C@@H]23)[C@@H]2C(C)(C)[C@]12OC(C)=O [PMA, phorbol myristate acetate]",midbody accumulation of C1A mutant (C183A) on PMA,"[1]; 1 µM PMA, 20 min",still promoted midbody accumulation
same,midbody recruitment of PKCεΔC2 on PMA,"[2]; PMA for 20 minutes, 20 cells per condition across 3 experiments",recruited
same,midbody recruitment of LKE > 3A mutant on PMA,"[3]; 1 µM PMA, 20 min",recruited to the midbody
same,midbody recruitment of WT PKCε on PMA,"[4]; 1 µM PMA, 20 min",recruited to the midbody region
same,midbody recruitment of C1B mutant (C259A) on PMA,"[5]; 1 µM PMA, 20 min",not recruited
